Laboratory results from the NIST ThermoML archive (doi:10.1016/j.fluid.2005.03.026).

Columns and labels:
[1] = molar heat capacity at constant pressure; conditions: 101.3 kPa, Liquid, Small sample (50 mg) DSC
[2] = molar heat capacity at constant pressure; xn = mol fraction of the nth substance listed; conditions: 101.3 kPa, Liquid, Small sample (50 mg) DSC

CCCCCCCCCC [decane]
[1]
Conditions | molar heat capacity at constant pressure [J/K/mol]
288.15 K | 310.09
298.15 K | 315.04
308.15 K | 320.03

CCCCCCCCCC [decane] + COC(=O)OC
molar heat capacity at constant pressure [J/K/mol], [2]
Conditions | 288.15 K | 298.15 K | 308.15 K
x2 = 0 | 310.09 | 315.04 | 320.03
x2 = 0.0486 | 302.45 | 307.21 | 311.97
x2 = 0.1015 | 294.55 | 298.95 | 303.55
x2 = 0.1491 | 287.67 | 291.87 | 296.24
x2 = 0.198 | 280.61 | 284.73 | 288.82
x2 = 0.3041 | 266.76 | 269.88 | 273.33
x2 = 0.4015 | 255.05 | 256.83 | 259.45
x2 = 0.4497 | 250.05 | 250.5 | 252.64
x2 = 0.5505 | 242.42 | 236.43 | 238.36
x2 = 0.6011 | 237.62 | 229.81 | 230.9
x2 = 0.6454 | 231.62 | 223.97 | –
x2 = 0.6945 | 223.46 | 216.47 | 216.49
x2 = 0.7943 | 202.82 | 198.92 | 199.64
x2 = 0.8464 | – | 189.34 | 190.56
x2 = 0.8975 | 179.17 | 180.34 | 181.8
x2 = 0.949 | 170.97 | 172.02 | 173.51

COC(=O)OC [dimethyl carbonate]
[1]
Conditions | molar heat capacity at constant pressure [J/K/mol]
288.15 K | 163.61
298.15 K | 164.65
308.15 K | 165.92

COC(=O)OC [dimethyl carbonate] + Cc1ccc(C)cc1
[2], x1 = 1
Conditions | molar heat capacity at constant pressure [J/K/mol]
288.15 K | 163.61
298.15 K | 164.65
308.15 K | 165.92
